{
  "source": "patent US9062118B2",
  "about": "(priority 2006, dated 2015)",
  "molecular_target": "adult mouse muscle nAChR subtype (α1β1εδ) (Mus musculus, UniProt P02716+P04756+P20782)",
  "sequence (P02716 whole entry, looked up)": "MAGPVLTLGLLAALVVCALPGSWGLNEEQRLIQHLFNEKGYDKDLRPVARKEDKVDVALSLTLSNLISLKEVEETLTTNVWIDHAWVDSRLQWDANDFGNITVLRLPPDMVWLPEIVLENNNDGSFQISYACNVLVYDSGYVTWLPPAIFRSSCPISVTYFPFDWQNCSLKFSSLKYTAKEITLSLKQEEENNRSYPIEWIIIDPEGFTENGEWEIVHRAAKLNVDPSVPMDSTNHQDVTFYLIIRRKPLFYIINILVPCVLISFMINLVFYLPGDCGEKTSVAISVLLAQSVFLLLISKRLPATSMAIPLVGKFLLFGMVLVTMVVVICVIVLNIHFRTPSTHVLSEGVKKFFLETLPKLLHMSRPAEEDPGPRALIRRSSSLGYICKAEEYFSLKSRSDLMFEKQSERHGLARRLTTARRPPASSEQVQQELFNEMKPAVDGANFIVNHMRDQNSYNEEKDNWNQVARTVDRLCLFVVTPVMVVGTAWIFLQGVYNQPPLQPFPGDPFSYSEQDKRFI",
  "sequence (P04756 whole entry, looked up)": "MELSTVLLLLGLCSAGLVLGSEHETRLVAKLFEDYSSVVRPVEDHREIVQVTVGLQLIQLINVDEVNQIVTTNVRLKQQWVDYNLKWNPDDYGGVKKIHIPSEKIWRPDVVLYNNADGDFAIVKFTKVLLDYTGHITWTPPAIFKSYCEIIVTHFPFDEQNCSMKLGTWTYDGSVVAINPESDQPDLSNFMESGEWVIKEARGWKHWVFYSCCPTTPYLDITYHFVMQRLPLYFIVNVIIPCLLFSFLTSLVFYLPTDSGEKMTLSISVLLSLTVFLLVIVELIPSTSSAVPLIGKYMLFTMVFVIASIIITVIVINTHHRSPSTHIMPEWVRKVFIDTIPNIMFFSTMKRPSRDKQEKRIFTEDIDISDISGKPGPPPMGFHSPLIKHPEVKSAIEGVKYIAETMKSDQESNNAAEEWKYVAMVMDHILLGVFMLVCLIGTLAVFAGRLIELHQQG",
  "sequence (P20782 whole entry, looked up)": "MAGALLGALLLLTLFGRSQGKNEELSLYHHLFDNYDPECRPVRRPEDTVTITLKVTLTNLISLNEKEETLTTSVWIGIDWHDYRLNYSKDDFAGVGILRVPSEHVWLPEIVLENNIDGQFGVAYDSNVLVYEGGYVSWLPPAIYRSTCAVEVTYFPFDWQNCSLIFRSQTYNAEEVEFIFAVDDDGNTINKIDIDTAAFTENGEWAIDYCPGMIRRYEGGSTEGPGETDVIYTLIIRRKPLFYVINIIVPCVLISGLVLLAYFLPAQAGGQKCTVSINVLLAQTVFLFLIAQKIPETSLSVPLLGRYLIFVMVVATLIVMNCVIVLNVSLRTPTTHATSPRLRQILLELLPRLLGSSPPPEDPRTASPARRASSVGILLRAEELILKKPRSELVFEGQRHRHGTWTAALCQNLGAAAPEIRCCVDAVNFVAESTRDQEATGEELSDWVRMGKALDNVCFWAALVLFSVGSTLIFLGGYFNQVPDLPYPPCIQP",
  "assay": "cell-based",
  "note": "pIC50: −log10 of the molar value. Bridge positions count the residues as written; N and C are the ends. Peptide text beside a SMILES is read from it.",
  "data": [
    {"smiles": "CC[C@H](C)[C@@H]1NC(=O)CNC(=O)[C@H](C)NC(=O)[C@H](CCCNC(=N)N)NC(=O)[C@@H]2CSSC[C@@H](C(=O)N[C@@H](CCCNC(=N)N)C(N)=O)NC(=O)[C@H](Cc3c[nH]cn3)NC(=O)[C@H](CSSC[C@H](NC(=O)[C@@H](NC(=O)[C@H](CCCNC(=N)N)NC(=O)[C@@H]3CCCN3C(=O)[C@H](CCCNC(=N)N)NC(=O)[C@@H]3CCCN3C(=O)[C@@H](N)Cc3ccccc3)[C@@H](C)CC)C(=O)N[C@@H](CC(N)=O)C(=O)N[C@@H](CC(C)C)C(=O)N[C@@H](C)C(=O)N2)NC(=O)[C@H](Cc2ccccc2)NC(=O)[C@@H]2CCCN2C(=O)[C@H](Cc2ccc(O)cc2)NC(=O)[C@H](CCCCN)NC(=O)[C@H](Cc2c[nH]cn2)NC(=O)CNC1=O", "note": "[pl14a] (H-FPRPRICNLACRAGIGHKYPFCHCR-NH2; disulfide 7-22, 11-24)", "values": [
      {"measurement": "pIC50", "value": 6.29}
    ]}
  ]
}
